# In patent publication US12208118B2, “Pharmaceutical compositions for delivery of peptide” (ANYA BIOPHARM INC., priority 2017, dated 2025):
# Tests used:
# Human Carboxypeptidase B = target: T1, Human Carboxypeptidase B (Homo sapiens, UniProt P15086); assay: Oxidative inactivation of Carboxypeptidase by combinations of metal salts and reducing agents (enzymatic activity); assay type: biochemical; conditions: reducing agent 1 mM, metal salt 5 μM, compared with original activity, in % (unit assumed)
# T1 sequence (P15086 111-417): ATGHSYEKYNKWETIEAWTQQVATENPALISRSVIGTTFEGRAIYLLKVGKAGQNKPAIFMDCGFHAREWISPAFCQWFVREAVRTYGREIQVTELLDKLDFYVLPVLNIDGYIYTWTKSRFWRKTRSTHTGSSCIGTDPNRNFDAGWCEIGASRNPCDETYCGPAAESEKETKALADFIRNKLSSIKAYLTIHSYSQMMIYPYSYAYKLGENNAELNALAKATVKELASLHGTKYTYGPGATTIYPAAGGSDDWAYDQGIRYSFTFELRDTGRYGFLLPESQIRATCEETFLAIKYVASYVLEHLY
# Procedure: (§1) Enzyme Activity Assay: The assay of enzymatic activity of each enzyme in the presence of its specific substrate was performed at a particular wavelength by using UV spectrophotometer, and it served as a negative control. The enzyme activity was calculated as: […]
# (§2) Enzyme Inhibition Assay: Incubation was performed with inhibitor of each enzyme, which served as a positive control.
# (§3) Incubation with metal ion(s) and reducing agent(s): Incubation of enzymes with combination of metal salt(s) and reducing agent(s) in microtitre 96 well plate was done for a specific period of time in presence of substrates to examine their oxidative inactivation. Inactivation of enzyme in presence of metal ion(s) and reducing agent(s) was compared with the original enzyme activity in the presence of substrate as a negative control and in the presence of inhibitor as a positive control.
# Assay for Enzymatic Activity of Carboxypeptidase B Using Hippuryl-Arginine
# 4 units of Carboxypeptidase B in cold deionized water, 1 mm Hippuryl-Arginine solution in 25 mM Iris Buffer solution containing 100 mM Sodium Chloride (pH 7.65) were prepared, separately at about 25° C. 3 ml reaction mixtures (Test and blank) were prepared using above prepared solutions according to Table 9 at 25° C. […]
# (§4) For a 200 μl reaction mixture, about 10 μl Carboxypeptidase was incubated in buffer with the combination of metal salts and reducing agents (provided in Table 2 at serial number 1 through 31) at respective concentration at 37° C. in 96 well microtitre plates (Table 3 hereinabove provides details on utilization of a particular combination from those provided at serial number 1 through 31 in Table 2) for 5 min, 15 min and 30 min followed by the addition of respective 90 μl substrate (provided in Table 1A). The enzyme activity was measured spectrophotometrically in a microplate reader, and was compared with original activity assay. The pH was measured by Hanna Combination pH electrode (reaction with enzyme was performed in triplicates). […]
# Porcine Aminopeptidase M = target: T2, Porcine Aminopeptidase M (Sus scrofa, UniProt P15145); assay: Oxidative inactivation of Aminopeptidase by combinations of metal salts and reducing agents (enzymatic activity); assay type: biochemical; conditions: compared with original activity, in % (unit assumed)
# T2 sequence (P15145 1-963): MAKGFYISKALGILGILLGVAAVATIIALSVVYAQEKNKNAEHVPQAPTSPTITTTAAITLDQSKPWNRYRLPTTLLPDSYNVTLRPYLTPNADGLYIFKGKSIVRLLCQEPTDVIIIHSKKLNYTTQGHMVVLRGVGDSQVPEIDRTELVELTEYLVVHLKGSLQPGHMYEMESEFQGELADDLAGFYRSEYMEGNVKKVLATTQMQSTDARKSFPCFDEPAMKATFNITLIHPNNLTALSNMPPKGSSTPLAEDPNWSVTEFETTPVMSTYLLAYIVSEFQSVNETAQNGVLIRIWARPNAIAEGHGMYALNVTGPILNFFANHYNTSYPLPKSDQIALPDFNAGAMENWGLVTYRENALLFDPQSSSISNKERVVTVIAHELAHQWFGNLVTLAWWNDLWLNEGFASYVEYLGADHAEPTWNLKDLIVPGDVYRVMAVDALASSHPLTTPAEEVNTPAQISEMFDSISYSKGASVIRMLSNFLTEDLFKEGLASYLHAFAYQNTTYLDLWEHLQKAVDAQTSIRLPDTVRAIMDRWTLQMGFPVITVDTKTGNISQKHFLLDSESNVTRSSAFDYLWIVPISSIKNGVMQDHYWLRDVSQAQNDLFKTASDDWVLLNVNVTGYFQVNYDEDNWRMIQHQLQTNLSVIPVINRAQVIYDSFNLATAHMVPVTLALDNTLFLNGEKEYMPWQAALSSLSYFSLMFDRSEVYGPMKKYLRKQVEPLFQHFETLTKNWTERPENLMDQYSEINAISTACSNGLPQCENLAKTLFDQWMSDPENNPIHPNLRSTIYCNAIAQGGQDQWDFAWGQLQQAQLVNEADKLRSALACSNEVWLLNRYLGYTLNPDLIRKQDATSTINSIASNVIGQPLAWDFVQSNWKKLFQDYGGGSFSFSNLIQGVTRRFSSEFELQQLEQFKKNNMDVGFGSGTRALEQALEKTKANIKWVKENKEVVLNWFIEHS
# Procedure: as §1, §2, §3
# To Assay the Enzymatic Activity of Aminopeptidase M Using L-Leucine-p-Nitroanilide
# 1 mM Tricine solution (Prepared in 100 ml deionized water, Reagent A) and 50 mM L-Leucine-p-nitroanilide solution in absolute methanol (Reagent B) were prepared, separately. […] Reagent G, Reagent E and Reagent F were mixed immediately by inversion to prepare test and blank solution as directed in table 12, and the increase in ΔA405 nm was recorded for approximately 5 minutes. ΔA405 nm/minute was obtained using maximum linear rate for both the Test and blank solution. […]
# as §4, with “Aminopeptidase” for “Carboxypeptidase”, “assay.” for “assay. The pH was measured by Hanna Combination pH electrode (reaction with enzyme was performed in triplicates).”
# [1] = Quantification of insulin glargine level in STZ induced diabetic rat plasma (Glargine ELISA), bioavailability; assay type: in vivo, S.D. rats; conditions: following subcutaneous and mid-jejunum administration, rats
# Procedure: (§5) Quantification of Glucose & Insulin Glargine Level in STZ Induced Diabetic Rat Plasma
# (§6) Glucose & insulin glargine levels in plasma were quantified after dosing several formulations of insulin glargine to mid-jejunum in STZ induced diabetic S.D. rats.
# (§7) Test formulation I: Insulin glargine (Lantus®)—Appearance: Solution for injection in a prefilled pen; Concentration: 100 IU/ml; Storage condition: 2-8° C.; Dose: 0.2 U/kg; Route: SC.
# (§8) Test formulation II: Insulin glargine Formulation—MIRA 1 (Reduced glutathione/Chromium Picolinate of Table 15A)+Permeation Enhancer 1 (PA 1 of Table 16A) (oral solution in TRIS buffer)—Dose: 1.7 U/animal; Route: mid-jejunum
# (§9) Test formulation III: Insulin glargine Formulation—PA 2 (of Table 16B) and MIRA 2 (Ascorbate Sodium/Vanadium Oxide of Table 15B) (oral solution in TRIS buffer)—Dose: 1.7 U/animal; Route: mid-jejunum.
# The clinical signs observed are normal. […] Glucose was measured immediately after blood collection using Glucometer. […]
# Principle: This Glargine ELISA is a two-site immunoassay, employing a monoclonal antibody immobilised on microtitre wells and a soluble antibody labelled with horseradish peroxidase (HRP). […] The intensity of the colour developed in each well is quantified in a microtitre plate reader set to record transmitted light at a wavelength of 450 nm (Kit Protocol: Used manufacturer recommended protocol Cat. No. MBS495369) […]
# [2] = system: STZ induced diabetic S.D. rats; assay: Glucose level in STZ induced diabetic rats after different formulations (Glucometer, % inhibition); assay type: in vivo; conditions: glucose by Glucometer
# Procedure: as §5, §6, §7, §8, §9
# The clinical signs observed are normal. With respect to sampling time points, during dosing, the blood collection time points was at 0, 20, 40, 60, 120 and 150 minutes post dose. ˜100 μl of blood was collected in a pre-filled Na-EDTA eppendorf, from retro-orbital sinus puncture. Blood was centrifuged at 5000 rpm, 5 min, 4° c. to obtain plasma. Glucose was measured immediately after blood collection using Glucometer.
Enzymatic activity of Carboxypeptidase (Human Carboxypeptidase B; incubation 5 min at 37° C.),Enzymatic activity of Carboxypeptidase (Human Carboxypeptidase B; incubation 15 min at 37° C.),Enzymatic activity of Carboxypeptidase (Human Carboxypeptidase B; incubation 30 min at 37° C.),Enzymatic activity of Aminopeptidase (Porcine Aminopeptidase M; Time 5 min incubation at 37° C.),Enzymatic activity of Aminopeptidase (Porcine Aminopeptidase M; Time 15 min incubation at 37° C.),Enzymatic activity of Aminopeptidase (Porcine Aminopeptidase M; Time 30 min incubation at 37° C.),Compound,clinical signs [1],mortality [1],% inhibition ([2]; 20 min post dose) [%],% inhibition ([2]; 40 min post dose) [%],% inhibition ([2]; 60 min post dose) [%],% inhibition ([2]; 120 min post dose) [%],% inhibition ([2]; 150 min post dose) [%]
104.5,91.7,62.26,108,100.4,80.52,O=C(/C=C/C=C/c1ccc2c(c1)OCO2)N1CCCCC1 [Piperine],–,–,–,–,–,–,–
–,–,–,–,–,–,Insulin glargine,normal,no mortality observed,22.9,25.5,22,39,17.2
